Legend:
[1] = system: Alternaria solani; experiment: Example C: in vivo preventive test on Alternaria solani (tomato); conditions: table C2, dose 100 ppm, comparison with WO-2010/086311 compound
Description: Example C: In Vivo Preventive Test on Alternaria solani (Tomato) [table] To produce a suitable preparation of active compound, 1 part by weight of active compound is mixed with the stated amounts of solvent and emulsifier, and the concentrate is diluted with water to the desired concentration. To test for preventive activity, young plants are sprayed with the preparation of active compound at the stated rate of application. One day after this treatment, the plants are inoculated with an aqueous spore suspension of Alternaria solani. The plants remain for one day in an incubation cabinet at approximately 22° C. and a relative atmospheric humidity of 100%. Then the plants are placed in an incubation cabinet at approximately 20° C. and a relative atmospheric humidity of 96%.

[2] = log P by HPLC on reversed-phase column (EEC Directive 79/831 Annex V.A8); format: physicochemical; conditions: Table 1; HPLC C18, 40° C., 0.1% aqueous formic acid and acetonitrile gradient
Description: In table 1, the log P values were determined in accordance with EEC Directive 79/831 Annex V.A8 by HPLC (High Performance Liquid Chromatography) on a reversed-phase column (C 18), using the method described below: Temperature: 40° C.; Mobile phases: 0.1% aqueous formic acid and acetonitrile; linear gradient from 10% acetonitrile to 90% acetonitrile. Calibration was carried out using unbranched alkan-2-ones (comprising 3 to 16 carbon atoms) with known log P values (determination of the log P values by the retention times using linear interpolation between two successive alkanones). lambda-max-values were determined using UV-spectra from 200 nm to 400 nm and the peak values of the chromatographic signals.

[3] = system: Sphaerotheca fuliginea; experiment: Example B: in vivo preventive test on Sphaerotheca fuliginea (powdery mildew on cucurbits); conditions: table B; 500 ppm; gherkin plants; grading 12 days after contamination
Description: Example B: In Vivo Preventive Test on Sphaerotheca fuliginea (Powdery Mildew on Cucurbits) […] Gherkin plants (“Vert petit de Paris” variety), sown in starter cups on a 50/50 peat soil-pozzolana substrate and grown at 24° C., are treated at the Z11 cotyledon stage by spraying with the active ingredient prepared as described above. Plants, used as controls, are treated with the mixture of acetone/tween/DMSO/water not containing the active material. After 24 hours, the plants are contaminated by spraying the cotyledons with an aqueous suspension of Sphaerotheca fuliginea spores (100 000 spores per mL). The spores are collected from infected plants. The contaminated gherkin plants are incubated at about 20° C. and at 70-80% relative humidity. Grading (% of efficacy) is carried out 12 days after the contamination, in comparison with the control plants.

[4] = system: Alternaria brassicae; experiment: Example D: in vivo preventive test on Alternaria brassicae (leaf spot on radish); conditions: table D; 500 ppm; radish plants; grading 6 days after contamination
Description: Example D: In Vivo Preventive Test on Alternaria brassicae (Leaf Spot on Radish) […] Radish plants (“Pernod Clair” variety), sown in starter cups on a 50/50 peat soil pozzolana substrate and grown at 17° C., are treated at the cotyledon stage by spraying with the active ingredient prepared as described above. Plants, used as controls, are treated with the mixture of acetone/tween/DMSO/water not containing the active material. After 24 hours, the plants are contaminated by spraying the cotyledons with an aqueous suspension of Alternaria brassicae spores (50 000 spores per mL). The spores are collected from a 15-day-old culture. The contaminated radish plants are incubated at 20° C. and at 100% relative humidity. Grading (% of efficacy) is carried out 6 days after the contamination, in comparison with the control plants.

[5] = system: Uromyces appendiculatus; experiment: Example G: in vivo preventive test on Uromyces appendiculatus (bean rust); conditions: bean plants
Description: Example G: In Vivo Preventive Test on Uromyces appendiculatus (Bean Rust) […] Bean plants (“Saxa” variety), sown in starter cups on a 50/50 peat soil pozzolana substrate and grown at 24° C., are treated at the 2 leaf stage (9 cm height) by spraying with the active ingredient prepared as described above. Plants, used as controls, are treated with the mixture of acetone/tween/DMSO/water not containing the active material. After 24 hours, the plants are contaminated by spraying the leaves with an aqueous suspension of Uromyces appendiculatus spores (150 000 spores per mL). The spores are collected from infected plants and are suspended in water containing 2.5 mL/L of Tween 80 at 10%. The contaminated bean plants are incubated for 24 hours at 20° C. and at 100% relative humidity, and then for 10 days at 20° C. and at 70-80% relative humidity. Grading (% of efficacy) is carried out 11 days after the contamination, in comparison with the control plants.

[6] = system: Septoria tritici; experiment: Example L: in vivo preventive test on Septoria tritici (wheat); conditions: table L; 500 ppm; wheat plants; grading 24 days after contamination
Description: Example L: In Vivo Preventive Test on Septoria tritici (Wheat) […] Wheat plants (“Scipion” variety), sown in starter cups on a 50/50 peat soil pozzolana substrate and grown at 22° C., are treated at the 1 leaf stage (10 cm height) by spraying with the active ingredient prepared as described above. Plants, used as controls, are treated with the mixture of acetone/tween/DMSO/water not containing the active material. After 24 hours, the plants are contaminated by spraying the leaves with an aqueous suspension of cryopreserved Septoria tritici spores (500 000 spores per mL). The contaminated wheat plants are incubated for 72 hours at 18° C. and at 100% relative humidity, and then for 21 days at 90% relative humidity. Grading (% of efficacy) is carried out 24 days after the contamination, in comparison with the control plants.

[7] = system: Pyrenophora teres; experiment: Example N: in vivo preventive test on Pyrenophora teres (barley); conditions: table N; 500 ppm; barley plants; grading 14 days after contamination
Description: Example N: In Vivo Preventive Test on Pyrenophora teres (Barley) […] Barley plants (“Plaisant” variety), sown in starter cups on a 50/50 peat soil pozzolana substrate and grown at 22° C., are treated at the 1 leaf stage (10 cm height) by spraying with the active ingredient prepared as described above. Plants, used as controls, are treated with the mixture of acetone/tween/DMSO/water not containing the active material. After 24 hours, the plants are contaminated by spraying the leaves with an aqueous suspension of Pyrenophora teres spores (12 000 spores per mL). The spores are collected from a 12-day-old culture. The contaminated barley plants are incubated for 48 hours at 20° C. and at 100% relative humidity, and then for 12 days at 20° C. at 70-80% relative humidity. Grading (% of efficacy) is carried out 14 days after the contamination, in comparison with the control plants.

[8] = system: Pyricularia oryzae; format: in vivo; conditions: table Q; 500 ppm; rice plants; grading 6 days after contamination
[9] = system: Puccinia recondita; experiment: Example R: in vivo preventive test on Puccinia recondita (brown rust on wheat); conditions: table R; 500 ppm; wheat plants; grading 12 days after contamination
Description: Example R: In Vivo Preventive Test on Puccinia recondita (Brown Rust on Wheat) […] Wheat plants (“Scipion” variety), sown in starter cups on a 50/50 peat soil pozzolana substrate and grown at 22° C., are treated at the 1 leaf stage (10 cm height) by spraying with the active ingredient prepared as described above. Plants, used as controls, are treated with the mixture of acetone/tween/DMSO/water not containing the active material. After 24 hours, the plants are contaminated by spraying the leaves with an aqueous suspension of Puccinia recondita spores (100 000 spores per mL). The spores are collected from an infected plant and are suspended in water containing 2.5 mL/L of Tween 80 at 10%. The contaminated wheat plants are incubated for 24 hours at 20° C. and at 100% relative humidity, and then for 10 days at 20° C. and at 70-80% relative humidity. Grading (% of efficacy) is carried out 12 days after the contamination, in comparison with the control plants.

[10] = system: Botrytis cinerea; experiment: Example S: in vivo preventive test on Botrytis cinerea (grey mould); conditions: table S; 500 ppm; gherkin plants; grading 4 to 5 days after contamination
Description: Example S: In Vivo Preventive Test on Botrytis cinerea (Grey Mould) […] Gherkin plants (“Vert petit de Paris” variety), sown in starter cups on a 50/50 peat soil pozzolana substrate and grown at 24° C., are treated at the Z11 cotyledon stage by spraying with the active ingredient prepared as described above. Plants, used as controls, are treated with the mixture of acetone/tween/DMSO/water not containing the active material. After 24 hours, the plants are contaminated by spraying the cotyledons with an aqueous suspension of cryopreserved Botrytis cinerea spores (50 000 spores per mL). The spores are suspended in a nutrient solution composed of 10 g/L of PDB, 50 g/L of D-Fructose, 2 g/L of NH4NO3 and 1 g/L of KH2PO4. The contaminated gherkin plants are incubated at 17° C. and at 90% relative humidity. Grading (% of efficacy) is carried out 4 to 5 days after the contamination, in comparison with the control plants.

[11] = table G1, 500 ppm, grading 11 days after contamination

| SMILES | Efficacy [1] | Efficacy ([1]; listed as I.2 from WO-2010/086311) | logP [2] | Efficacy [3] | Efficacy [4] | Efficacy [5, 11] | Efficacy ([5]; table G2, dose 100 ppm) | Efficacy ([5]; table G2, dose 500 ppm) | Efficacy [6] | Efficacy [7] | Efficacy [8] | Efficacy [9] | Efficacy [10] |
| --- | --- | --- | --- | --- | --- | --- | --- | --- | --- | --- | --- | --- | --- |
| Cc1nn(C)c(F)c1C(=O)N(C1CC1)C(C)C1CCCc2ccccc21 (stereo not drawn) [1.2 from WO-2010/086311, N-cyclopropyl-5-fluoro-1,3-dimethyl-N-[1-(1,2,3,4-tetrahydronaphthalen-1-yl)ethyl]-1H-pyrazole-4-carboxamide, reference compound] | no protection | 0% |  |  |  |  |  |  |  |  |  |  |  |
| Cc1cccc2c1CCC2CN(C(=O)c1c(C(F)F)nn(C)c1F)C1CC1 (stereo not drawn) [I.3] |  |  | 3.71 | 100% | 97% | 100% | 88% | 100% | 100% | 100% | 97% | 94% |  |
| Cn1nc(C(F)F)c(C(=O)N(CC2CCc3c(F)cccc32)C2CC2)c1Cl (stereo not drawn) [I.8] |  |  | 3.55 | 100% |  |  |  |  | 71% | 86% | 83% | 75% |  |
| Cn1nc(C(F)F)c(C(=S)N(CC2CC(C)(C)c3ccccc32)C2CC2)c1F (stereo not drawn) [I.11] |  |  | 4.69 | 100% | 100% |  |  |  | 100% | 100% |  | 94% | 100% |
| Cn1nc(C(F)F)c(C(=O)N(CC2CCc3cccc(Cl)c32)C2CC2)c1F (stereo not drawn) [I.14] |  |  | 3.80 | 100% | 100% | 100% | 50% | 100% | 97% | 93% | 75% | 81% |  |
| Cn1nc(C(F)F)c(C(=O)N(CC2CCc3ccc(C(F)(F)F)cc32)C2CC2)c1F (stereo not drawn) [I.17] |  |  | 3.87 | 100% |  | 100% |  |  | 94% | 86% |  | 100% | 100% |
| Cn1nc(C(F)F)c(C(=S)N(CC2CCc3c(Cl)cc(Cl)cc32)C2CC2)c1F (stereo not drawn) [I.20] |  |  | 5.22 | 100% | 100% | 100% |  |  | 97% | 100% |  | 83% | 75% |
| Cn1nc(C(F)F)c(C(=O)N(CC2CCc3cccc(Br)c32)C2CC2)c1F (stereo not drawn) [I.21] |  |  | 3.92 | 100% | 100% | 98% |  |  | 93% | 79% | 83% | 88% |  |
| CC1CCC(CN(C(=O)c2c(C(F)F)nn(C)c2F)C2CC2)c2ccccc21 (stereo not drawn) [I.24] |  |  | 3.96 | 100% | 100% | 100% |  |  | 100% | 100% |  | 94% | 100% |
| Cn1nc(C(F)F)c(C(=O)N(CC2CCCCc3ccccc32)C2CC2)c1F (stereo not drawn) [I.30] |  |  | 3.90 | 100% | 100% | 100% |  |  | 100% | 100% |  | 94% | 100% |
| Cn1nc(C(F)F)c(C(=O)N(CC2CCOc3ccccc32)C2CC2)c1F (stereo not drawn) [I.31] |  |  | 3.00 | 100% | 100% | 94% |  |  | 100% | 100% |  | 83% | 100% |
| Cn1nc(C(F)F)c(C(=O)N(CC2CCSc3ccc(Cl)cc32)C2CC2)c1F (stereo not drawn) [I.36] |  |  | 3.83 | 85% | 100% | 100% |  |  | 79% | 94% |  | 78% | 97% |
